{"source": "patent US10822376B2", "about": "“Biologically active peptides” (Baxalta Incorporated, priority 2008, dated 2020)", "key": {"[1]": {"tested_on": "Factor VIII deficient human plasma", "test": "DDPTGA (reagent B) in FVIII depleted plasma; also: key: '+' means stimulates; '−' means does not stimulate", "type": "biochemical", "conditions": "compounds at 50 μM and 80, 90 or 100 μM", "source_text": "(§1) Preferably, Reagent C high is used."}, "[2]": {"tested_on": "human FVIII inhibited plasma", "test": "Defined Intrinsic Thrombin Generation Assay (DITGA, triggered by FXIa and phospholipids)", "type": "biochemical", "source_text": "(§2) The intrinsic pathway of thrombin generation may be assayed in a thrombin generation assay by including FXIa and phospholipids. In such an assay, which is similar to an activated partial thromboplastin time (aPTT) test, thrombin generation is solely directed through the intrinsic pathway, and is FVIII dependent. A suitable assay is the Defined Intrinsic Thrombin Generation Assay described below. Alternatively, by employing low concentrations of TF and phospholipids instead of FXIa and phospholipids, thrombin is generated by both the extrinsic (tissue factor) and the intrinsic pathways. This form of the thrombin generation assay is the more physiologic one, as both thrombin generation pathways are involved; it is partially FVIII dependent. A suitable assay is the Defined Dual-Pathway Thrombin Generation Assay.\nThe Defined Intrinsic Thrombin Generation Assay is performed as follows. FVIII activity of human plasma is inhibited by incubating (2 hours, 37° C.) 40 μl of human normal plasma with 10 μl heat inactivated anti-human FVIII plasma raised in goat (600 BU/ml, 6 hours incubated at 56° C.). […] Instead of FVIII-inhibited plasma, FVIII inhibitor patient plasma or several depleted plasmas can be used. The micro-plate is immediately put into a GENios Plus (Tecan) or Safire 2 (Tecan) fluorescence reader and the fluorescence signal (ex 340 nm/em 440 nm) is followed kinetically by reading the plate every 21 seconds.\nFor calculation of activity equivalent units experiments are performed with dilutions of Factor Eight Inhibitor Bypassing Agent (FEIBA, Baxter AG), Immunate (human FVIII, purified plasma derived) reference standard (Baxter AG) or Recombinate standard (human FVIII, purified recombinant, Baxter AG). A linear fit of the logarithm of FEIBA (FVIII) concentration plotted against thrombin generation time at peak thrombin results in a standard curve. With this curve FEIBA (FVIII) equivalent activity is calculated for a defined peptide concentration. […] Thus, where a concentration of 100 μM is given, the actual concentration in the final assay volume in 40 μM.\nCompounds were screened using the “Defined intrinsic thrombin generation assay” in which thrombin generation was quantified in vitro in FVIII-inhibited human plasma in the presence of Factor XIa and phospholipid vesicles. Further compounds were screened in the above assay, and in the “Defined dual-pathway thrombin generation assay” using tissue factor and phospholipids instead of Factor XIa and phospholipids, as described in the specific description.\nVarious concentrations of each peptide were tested in the defined intrinsic thrombin generation assay using human FVIII inhibited plasma."}, "[3]": {"tested_on": "FVIII deficient plasma", "test": "Defined Dual-Pathway Thrombin Generation Assay (DDPTGA, reagent C high), FVIII deficient plasma", "type": "biochemical, human", "conditions": "FVIII deficient plasma", "source_text": "as §2, §1\n(§3) Tissue factor dependency of peak thrombin generation and thrombin peak time was characterised in a composition containing a fixed concentration of phospholipid (namely 3.2 μM). Phospholipid dependency was characterised in a composition containing a fixed concentration of tissue factor (namely 7.2 μM). Peak time (time to peak thrombin generation) was dependent on the concentration of phospholipid or tissue factor. The final version of this assay is as described in the specific description, in which 10 μl reagent C high containing (32 μM phospholipid and 71.6 μM tissue factor) is used in a total volume of 100 μl.\n(§4) Further studies were conducted using 3.2 μM phospholipid and 7.2 μM tissue factor in FVIII deficient or inhibited plasma, to characterise the effect on peak thrombin generation and thrombin peak time of various coagulation factor preparations. These studies provided a basis from which to compare the efficacy of the compounds in the assay. Briefly, rFVIII (Recombinate® FVIII from Baxter) was tested at 0, 5, 10, 20, 40 and 80 mU/ml in FVIII deficient plasma. FEIBA was tested at 0, 8, 16, 31, 63 and 125 mU/ml in FVIII inhibited plasma. FVIIa was tested at 0, 0.1, 0.4, 1.6, 6.3 and 25 nM in FVIII inhibited plasma. […] Peak thrombin increased and both the lag time and the thrombin peak time decrease."}, "[4]": {"tested_on": "Factor VII/VIIa deficient human plasma", "test": "DDPTGA (reagent B) in FVII depleted plasma", "conditions": "compounds at 50 μM and 80, 90 or 100 μM", "description": "(§5) The Defined Dual-Pathway Thrombin Generation Assay is performed as described below, using a commercial test kit (Technothrombin TGA, Technoclone GmbH, Vienna, Austria). […] USA) are incubated four minutes at 37° C. Preferably, Reagent C high is used. Thrombin generation is started by the addition of 40 μl of one of several types of human plasma (37° C.). […] By deviating the original fluorescence data the amount of generated thrombin is calculated from a standard curve constructed using a concentration range of thrombin.\n(§6) The in vitro thrombin generation assay based on the cleavage of Z-GGR-AMC to release the fluorophore AMC, described in the specific description, i.e. the Defined Dual-Pathway Thrombin Generation Assay was used to characterise the effect of the compounds in several depleted human plasmas. […] 10 μl peptide dilution, 40 μl TGA substrate and 40 μl plasma were used as described in the specific description.\n(§7) The plasmas used in the experiments were fresh frozen and were deficient in Factor V, Factor VII/VIIa, Factor VIII, Factor X or Factor XI (George King Bio-Medical, Inc.). Residual coagulation factor levels of deficient plasmas were specified as less than 1%.\n(§8) For each depleted plasma used in the experiments, compounds were tested at two concentrations, namely 50 μM and 80, 90 or 100 μM. A negative control was used, in which no test compound was included."}, "[5]": {"tested_on": "FVIII inhibited plasma", "test": "Defined Dual-Pathway Thrombin Generation Assay (DDPTGA, reagent C high), FVIII inhibited plasma", "type": "biochemical, human", "conditions": "for Peak IIa FEIBA EU / Peak IIa FVIIa EU / Peak Time FEIBA EU / Peak Time FVIIa EU: FVIII inhibited plasma", "source_text": "as §2, §1, §3, §4"}, "[6]": {"tested_on": "Factor XI deficient human plasma", "test": "DDPTGA (reagent B) in FXI depleted plasma", "conditions": "compounds at 50 μM and 80, 90 or 100 μM", "description": "as §5, §6, §7, §8"}, "[7]": {"tested_on": "FVIII-inhibited human normal plasma", "test": "Defined Fibrin Deposition Assay (clotting time)", "type": "biochemical", "protocol": "Another suitable assay to determine procoagulant activity, and particularly FVIII equivalent activity or FVIII inhibitor bypassing activity, is the Defined Fibrin Deposition Assay as described below. […] This assay is particularly useful for determining coagulation FVIII activity because it is conducted in the presence of FVIII-depleted or inhibited plasma.\nThe Defined Fibrin Deposition Assay is performed as follows. FVIII activity of human citrated plasma (Baxter AG) is first inhibited by incubating (2 hours, 37° C.) 100 μl of human normal plasma with 25 μl heat inactivated anti-human FVIII plasma (300 BU/ml, 6 hours incubated at 56° C.) raised in goat. For each sample to be tested, 125 μl of this FVIII-inhibited human normal plasma is transferred to a pre-warmed cuvette and a 75 μl dilution of a test compound or FEIBA reference standard (Baxter AG) is added. The dilutions of test compound or FEIBA reference standard contain 50 mM imidazole, 100 mM NaCl and 10 mg/ml human serum albumin (Sigma) pH 7.4. As a trigger and for providing procoagulant surfaces 100 μl of a mix of human factor XIa (3.13 nM, Enzyme Research Laboratories) and phospholipid (PL) vesicles (Phosphatidylcholine/Phosphatidylserine 60%/40%, 30 μM; Avanti Polar Lipids) in 50 mM Imidazole, 100 mM NaCl, 10 mg/ml human serum albumin (Sigma) pH 7.4 is included. After incubating for three minutes at 37° C. the coagulation reaction is started by adding 100 μl of 25 mM CaCl2. Clot formation is monitored by a coagulometer (KC10A, Amelung, Germany). In brief, each cuvette rotates slowly above the magnetic detection device and contains a small magnetic metallic ball. Whilst the plasma components remain in solution, the ball sits at the bottom of the cuvette. Over time, a clot begins to form, such that the ball starts to rotate with the developing clot in the rotating cuvette. The “clotting time” is recorded and is defined as the time from addition of the CaCl2) to the time that the developing clot begins to rotate the metallic ball. A standard curve for FEIBA reference standard dilutions is calculated by linear regression of logarithmic FEIBA concentrations (x-axis) against the clotting time (y-axis). Based on the clotting time of each compound concentration FEIBA equivalent activities are calculated according to this standard curve.\nThus, where a concentration of 100 μM is given, the actual concentration in the final assay volume in 25 μM.\nVarious peptides were tested for the ability to stimulate fibrin deposition in the Defined Fibrin Deposition Assay as described in the specific description."}, "[8]": {"tested_on": "Factor V deficient human plasma", "test": "DDPTGA (reagent B) in FV depleted plasma", "conditions": "compounds at 50 μM and 80, 90 or 100 μM", "description": "as §5, §6, §7, §8"}, "[9]": {"tested_on": "Factor X deficient human plasma", "test": "DDPTGA (reagent B) in FX depleted plasma", "conditions": "compounds at 50 μM and 80, 90 or 100 μM", "description": "as §5, §6, §7, §8"}, "[10]": {"tested_on": "FIX−/− mice", "test": "Tail clip assay in FIX−/− mice (blood loss, survival)", "type": "in vivo, mouse", "conditions": "for Survival (%) 2 hours / Survival (%) 4 hours / Survival (%) 24 hours / Survival (%) 48 hours: FIX−/− mice, tail clip"}}, "data": [{"substance": "Ac-WDLYFEIVW-ttds-E [Peptide A07]", "values": [{"measurement": "Stimulation of thrombin generation", "setting": "[1]", "value": "+"}, {"measurement": "Thrombin peak time given as FEIBA equivalent activity", "setting": "[2]; peptide 6.25 μM", "value": 415, "unit": "mU/ml"}, {"measurement": "Thrombin peak time given as FEIBA equivalent activity", "setting": "[2]; peptide 12.5 μM", "value": 585, "unit": "mU/ml"}, {"measurement": "Thrombin peak time given as FEIBA equivalent activity", "setting": "[2]; peptide 25 μM", "value": 750, "unit": "mU/ml"}, {"measurement": "Thrombin peak time given as FEIBA equivalent activity", "setting": "[2]; peptide 50 μM", "value": 965, "unit": "mU/ml"}, {"measurement": "Thrombin peak time given as FEIBA equivalent activity", "setting": "[2]; peptide 100 μM", "value": 1129, "unit": "mU/ml"}, {"measurement": "Activity in the Defined Intrinsic Thrombin Generation Assay", "setting": "[2]; summary", "value": "possess activity"}, {"measurement": "Peak IIa FVIII EU", "setting": "[3]; peptide 50 μM", "value": "BLS (BLS = below lowest standard.)"}, {"measurement": "Peak Time FVIII EU", "setting": "[3]; peptide 50 μM", "value": "BLS (BLS = below lowest standard.)"}, {"measurement": "Peak IIa FVIII EU", "setting": "[3]; peptide 100 μM", "value": "BLS (BLS = below lowest standard.)"}, {"measurement": "Peak Time FVIII EU", "setting": "[3]; peptide 100 μM", "value": "BLS (BLS = below lowest standard.)"}, {"measurement": "Stimulation of thrombin generation", "setting": "[4]", "value": "+"}, {"measurement": "Peak IIa FEIBA EU", "setting": "[5]; peptide 50 μM", "value": "BLS (BLS = below lowest standard.)"}, {"measurement": "Peak IIa FVIIa EU", "setting": "[5]; peptide 50 μM", "value": "BLS (BLS = below lowest standard.)"}, {"measurement": "Peak Time FEIBA EU", "setting": "[5]; peptide 50 μM", "value": "BLS (BLS = below lowest standard.)"}, {"measurement": "Peak Time FVIIa EU", "setting": "[5]; peptide 50 μM", "value": "BLS (BLS = below lowest standard.)"}, {"measurement": "Peak IIa FEIBA EU", "setting": "[5]; peptide 100 μM", "value": "BLS (BLS = below lowest standard.)"}, {"measurement": "Peak IIa FVIIa EU", "setting": "[5]; peptide 100 μM", "value": 0.1, "unit": "nM"}, {"measurement": "Peak Time FEIBA EU", "setting": "[5]; peptide 100 μM", "value": "BLS (BLS = below lowest standard.)"}, {"measurement": "Peak Time FVIIa EU", "setting": "[5]; peptide 100 μM", "value": "BLS (BLS = below lowest standard.)"}, {"measurement": "Activity in the Defined Dual-Pathway Thrombin Generation Assay", "setting": "[5]; summary, FVIII inhibited or deficient plasma", "value": "possess activity"}, {"measurement": "Stimulation of thrombin generation", "setting": "[6]", "value": "+"}, {"measurement": "FEIBA EU (from clotting time)", "setting": "[7]; compound 12.5 μM", "value": 268, "unit": "mU/ml"}, {"measurement": "FEIBA EU (from clotting time)", "setting": "[7]; compound 25 μM", "value": 246, "unit": "mU/ml"}, {"measurement": "FEIBA EU (from clotting time)", "setting": "[7]; compound 50 μM", "value": 199, "unit": "mU/ml"}, {"measurement": "Activity in the Defined Fibrin Deposition Assay", "setting": "[7]; summary", "value": "possess activity"}, {"measurement": "Stimulation of thrombin generation", "setting": "[8]", "value": "−"}, {"measurement": "Stimulation of thrombin generation", "setting": "[9]", "value": "+"}]}, {"substance": "Immunine: purified plasma FIX preparation (Baxter AG. Austria)", "values": [{"measurement": "Blood loss over the 62 minutes after tail clip", "setting": "[10]; 50, 100 or 200 U/kg i.v.", "value": "dose-dependent reduction"}, {"measurement": "Bleeding parameters and survival", "setting": "[10]; 50-200 U/kg", "value": "dose dependently improves"}, {"measurement": "Survival (%) 2 hours", "setting": "[10]; 50 U/kg i.v.", "value": 94, "unit": "%"}, {"measurement": "Survival (%) 4 hours", "setting": "[10]; 50 U/kg i.v.", "value": 69, "unit": "%"}, {"measurement": "Survival (%) 24 hours", "setting": "[10]; 50 U/kg i.v.", "value": 63, "unit": "%"}, {"measurement": "Survival (%) 48 hours", "setting": "[10]; 50 U/kg i.v.", "value": 63, "unit": "%"}, {"measurement": "Survival (%) 2 hours", "setting": "[10]; 100 U/kg i.v.", "value": 100, "unit": "%"}, {"measurement": "Survival (%) 4 hours", "setting": "[10]; 100 U/kg i.v.", "value": 100, "unit": "%"}, {"measurement": "Survival (%) 24 hours", "setting": "[10]; 100 U/kg i.v.", "value": 94, "unit": "%"}, {"measurement": "Survival (%) 48 hours", "setting": "[10]; 100 U/kg i.v.", "value": 94, "unit": "%"}, {"measurement": "Survival (%) 2 hours", "setting": "[10]; 200 U/kg i.v.", "value": 100, "unit": "%"}, {"measurement": "Survival (%) 4 hours", "setting": "[10]; 200 U/kg i.v.", "value": 100, "unit": "%"}, {"measurement": "Survival (%) 24 hours", "setting": "[10]; 200 U/kg i.v.", "value": 100, "unit": "%"}, {"measurement": "Survival (%) 48 hours", "setting": "[10]; 200 U/kg i.v.", "value": 100, "unit": "%"}]}]}
